In brackets after ≈: the same amount, converted by molar mass.

The test concerns Plasmodium falciparum. Description: Antiplasmodial activity against chloroquine-resistant Plasmodium falciparum W2 by FACS. It counts as functional, organism-based. (A flow cytometer gives signals particle by particle.)
In general, IC50 refers to the point on the concentration scale where inhibition reaches its midpoint. High values mean weaker potency in that assay, low ones greater potency in that assay. Take `C=C[C@H]1[C@H](O[C@@H]2O[C@H](CO)[C@@H](O)[C@H](O)[C@H]2O)OC=C2C(=O)OCC[C@H]21` [SWEROSIDE]: the IC50 was over 50 µg/mL. `CC1OC(=O)C(C=O)=C2C=COC=C21` (centres undefined) [FAGRALDEHYDE] gave an IC50 of 22.4 µg/mL (≈ 117 µM). `C=C[C@H]1[C@H](O[C@@H]2O[C@H](CO)[C@@H](O)[C@H](O)[C@H]2O)OC=C2C(=O)OCC[C@]21O` [SWERTIAMARIN] displayed a concentration for half-maximal inhibition (IC50) of over 50 µg/mL. Compound `C=C[C@@H]1C2=CCOC(=O)C2=CO[C@H]1O[C@@H]1O[C@H](CO)[C@@H](O)[C@H](O)[C@H]1O` [GENTIOPICROSIDE] displayed a concentration for half-maximal inhibition (IC50) of over 50 µg/mL.

(Values after ChEMBL document CHEMBL1151721, “Fagraldehyde, a secoiridoid isolated from Fagraea fragrans” (J Nat Prod, 2008).)
